From patent US7592352B2, “Substituted thieno and furo-pyridines” (SmithKline Beecham Corporation, priority 2003, dated 2009)
pIC50: −log10 of the molar value.

How the values were obtained:
Type in all cases: biochemical
Src = target: T1, Src (Homo sapiens, UniProt P12931); test: Src enzyme assay (HTRF); details: N-85 Src, 10 μM ATP, pIC50 = -log10(IC50) in Molar
T1 construct: precede the first globular domain (amino acids 86-536, BR# 455)
From the text: The Src enzyme assay used Homogeneous Time Resolved Fluorescence (HTRF) assay technology to measure the enzyme activity. HTRF is based on fluorescence resonance energy transfer between a Europium-labeled phospho-tyrosine antibody (donor) and Allophycocyanin (APC) conjugated to streptavidin (acceptor). This method measured the ability of the purified enzymes to catalyze the transfer of the γ-phosphate from ATP onto tyrosine residues in a biotinylated synthetic peptide. The peptide used for the Src enzyme activity assay was biotin-(6-amino caproic acid)-AAAQQIYGQI-NH2. The enzyme used was baculovirus expressed N-85 Src with the deletion of first 85 amino acids, which precede the first globular domain (amino acids 86-536, BR# 455).
To preactivate enzyme, 180 μM N-85 Src was incubated with 5 mM ATP and 50 mM MgCl2 for 40 min on ice. The preactivated enzyme (0.4 nM final concentration) was then incubated for 30 min at room temperature in either 96-well or 384-well plates containing 200 nM peptide, 10 μM ATP, 0.05 mg/ml MgCl2, and test compound in 0.1 M HEPES pH 7.5. Each reaction was first stopped by the addition of 45 mM EDTA in 0.1 M HEPES pH7.5, then, HTRF reagent was added to measure the signal. After 10 min incubation at room temperature, the plates were read at 665 nm on a Wallac Victor reader with a time delay. The percent inhibition of activity was calculated relative to positive (C1) and negative (C2, EDTA added) control wells using, 100*(1−(U1−C2)/(C1−C2)). The concentration of test compound yielding 50% inhibition was determined using the equation, y=((Vmax*x)/(K+x))+Y2, where “K” was equal to the IC50. The IC50 values were converted to pIC50 values, i.e., −log IC50 in Molar concentration.

human TIE2 = target: T2, human TIE2 (Homo sapiens, UniProt Q02763); test: TIE-2 enzyme assay (LANCE method); details: GST-TIE2, 80 uM ATP, pIC50 = -log10(IC50) in Molar
T2 construct: made in house
From the text: The TIE-2 enzyme assay used the LANCE method (Wallac) and GST-TIE2, baculovirus expressed recombinant constructs of the intracellular domains of human TIE2 (amino acids 762-1104, GenBank Accession # L06139) tagged by GST). The method measured the ability of the purified enzymes to catalyse the transfer of the γ-phosphate from ATP onto tyrosine residues in a biotinylated synthetic peptide, D1-15 (biotin-C6-LEARLVAYEGWVAGKKKamide). This peptide phosphorylation was detected using the following procedure: for enzyme preactivation, GST-TIE2 was incubated for 30 mins at room temperature with 2 mM ATP, 5 mM MgCl2 and 12.5 mM DTT in 22.5 mM HEPES buffer (pH7.4). Preactivated GST-TIE2 was incubated for 30 mins at room temperature in 96 well plates with 1 uM D1-15 peptide, 80 uM ATP, 10 mM MgCl2, 0.1 mg/ml BSA and the test compound (diluted from a 10 mM stock in DMSO, final DMSO concentration was 2.4%) In 1 mM HEPES (pH7.4). The reaction was stopped by the addition of EDTA (final concentration 45 mM). Streptavidin linked-APC (allophycocyanin, Molecular Probe) and Europium-labeled anti-phosphorylated tyrosine antibody (Wallac) were then added at the final concentration of 17 ug/well and 2.1 ug/well, respectively. The APC signal was measured using an ARVO multilabel counter. (Wallac Berthold Japan). The percent inhibition of activity was calculated relative to blank control wells. The concentration of test compound that inhibits 50% of activity (IC50) was interpolated using nonlinear regression (Levernberg-Marquardt) and the equation, y=Vmax (1−x/(K+x))+Y2, where “K” was equal to the IC50. The IC50 values were converted to pIC50 values, i.e., −log IC50 in Molar concentration.

human EphB4 = target: T3, human EphB4 (Homo sapiens, UniProt P54760); test: EphB4 enzyme assay (Scintillation Proximity Assay); details: GST-EphB4, 1 uM ATP, SPA; pIC50 = -log10(IC50) in Molar
T3 construct: human EphB4 (amino acids 600-914, BR # 21454)
T3 sequence (P54760 600-914): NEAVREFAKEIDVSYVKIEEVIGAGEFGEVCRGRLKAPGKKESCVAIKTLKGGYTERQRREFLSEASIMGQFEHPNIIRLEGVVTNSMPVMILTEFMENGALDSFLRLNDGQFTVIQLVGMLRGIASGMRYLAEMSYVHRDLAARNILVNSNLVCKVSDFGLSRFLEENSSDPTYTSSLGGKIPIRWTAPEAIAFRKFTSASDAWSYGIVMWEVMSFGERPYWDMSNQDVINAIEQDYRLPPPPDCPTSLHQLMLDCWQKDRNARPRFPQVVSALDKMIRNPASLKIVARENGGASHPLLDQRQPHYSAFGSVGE
Procedure: The EphB4 enzyme assay used Scintillation Proximity Assay technology to measure enzyme activity. This method measured the ability of the purified enzymes to catalyse the transfer of the γ-phosphate from ATP onto tyrosine residues in a biotinylated synthetic peptide. […] Each reaction was stopped by the addition of 0.1 mg Streptavidin SPA beads in 100 mM EDTA/1×PBS, pH 7.2. The signal was measured using a Wallac Trilux scintillation counter (Wallac). The percent inhibition of activity was calculated relative to positive (C1) and negative (C2) control wells using, 100*(1−(U1−C2)/(C1−C2)). The concentration of test compound was determined using the equation, y=((Vmax*x)/(K+x))+Y2, where “K” was equal to the IC50. The IC50 values were converted to pIC50 values, i.e., −log IC50 in Molar concentration.

VEGFR-2 = target: T4, VEGFR-2 (Homo sapiens, UniProt P35968); test: VEGFR-2 enzyme assay (LANCE method); details: GST-VEGFR2, 75 uM ATP, pIC50 = -log10(IC50) in Molar
T4 construct: GST-VEGFR2, baculovirus expressed recombinant constructs of the intracellular domains; made in house
Procedure: The VEGF enzyme assay used the LANCE method (Wallac) and GST-VEGFR2, baculovirus expressed recombinant constructs of the intracellular domains of human […] tagged by GST. […] The reaction was stopped by the addition of EDTA (final concentration 50 mM). […] The APC signal was measured using an ARVO multilabel counter (Wallac Berthold, Japan). The percent inhibition of activity was calculated relative to blank control wells. […] The IC50 values were converted to pIC50 values, i.e., −log IC50 in Molar concentration.

T1 sequence (P12931 86-536): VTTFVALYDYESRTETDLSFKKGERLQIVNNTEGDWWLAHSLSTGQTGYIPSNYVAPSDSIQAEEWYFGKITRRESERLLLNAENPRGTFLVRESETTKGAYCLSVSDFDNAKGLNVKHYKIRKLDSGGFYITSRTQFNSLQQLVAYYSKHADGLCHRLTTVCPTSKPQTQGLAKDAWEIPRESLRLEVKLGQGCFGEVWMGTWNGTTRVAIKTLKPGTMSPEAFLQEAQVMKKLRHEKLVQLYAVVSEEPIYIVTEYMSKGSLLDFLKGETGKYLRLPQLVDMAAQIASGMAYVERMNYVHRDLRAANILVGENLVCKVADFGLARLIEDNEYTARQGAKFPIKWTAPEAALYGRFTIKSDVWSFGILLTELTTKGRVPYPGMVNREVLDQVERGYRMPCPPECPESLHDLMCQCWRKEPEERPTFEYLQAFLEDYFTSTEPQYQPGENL
T2 sequence (Q02763 762-1104): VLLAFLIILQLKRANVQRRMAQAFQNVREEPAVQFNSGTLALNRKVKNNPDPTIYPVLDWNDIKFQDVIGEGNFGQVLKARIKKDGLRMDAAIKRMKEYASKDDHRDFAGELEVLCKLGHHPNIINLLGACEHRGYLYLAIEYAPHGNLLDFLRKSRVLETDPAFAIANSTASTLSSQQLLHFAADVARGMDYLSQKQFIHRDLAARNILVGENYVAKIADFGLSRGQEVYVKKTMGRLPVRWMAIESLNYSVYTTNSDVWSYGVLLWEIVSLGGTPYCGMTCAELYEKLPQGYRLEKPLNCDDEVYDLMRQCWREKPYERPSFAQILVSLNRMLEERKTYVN
T4 sequence (P35968 786-1356 limits assumed): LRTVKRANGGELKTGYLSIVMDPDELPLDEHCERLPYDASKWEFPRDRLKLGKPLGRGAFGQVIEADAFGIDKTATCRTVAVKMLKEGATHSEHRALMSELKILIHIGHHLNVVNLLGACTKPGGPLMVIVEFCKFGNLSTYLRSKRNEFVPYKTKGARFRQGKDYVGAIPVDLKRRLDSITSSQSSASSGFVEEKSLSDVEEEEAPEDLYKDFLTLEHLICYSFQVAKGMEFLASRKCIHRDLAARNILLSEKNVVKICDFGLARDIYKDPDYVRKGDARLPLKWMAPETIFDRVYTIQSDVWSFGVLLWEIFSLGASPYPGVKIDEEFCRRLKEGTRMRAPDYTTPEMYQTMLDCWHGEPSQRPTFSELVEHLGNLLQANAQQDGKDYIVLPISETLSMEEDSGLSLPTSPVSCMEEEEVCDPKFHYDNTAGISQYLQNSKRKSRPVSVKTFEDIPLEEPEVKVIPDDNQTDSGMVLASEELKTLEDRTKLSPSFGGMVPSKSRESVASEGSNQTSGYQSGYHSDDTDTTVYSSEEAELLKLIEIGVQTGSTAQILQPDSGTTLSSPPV

Row | Compound | pIC50 (Src) | pIC50 (human TIE2) | pIC50 (human EphB4) | pIC50 (VEGFR-2)
1 | Nc1nccc2occ(-c3ccc(NC(=O)Nc4cc(C(F)(F)F)ccc4F)cc3)c12 [Ib] | 6.00 to 6.99 | 7.00 to 7.99 | 7.50 to 8.49 | 7.50 to 8.49
2 | Nc1ncc(-c2cccnc2)c2occ(-c3ccc(NC(=O)Nc4cc(C(F)(F)F)ccc4F)cc3)c12 [Ie] | – | – | – | 8.50 to 9.50

Other lines, results leading:

Row | pIC50 (Src) | pIC50 (human TIE2) | pIC50 (human EphB4) | pIC50 (VEGFR-2) | Compound
3 | 7.00 to 7.99 | – | – | – | Nc1ncc(-c2cccc(Cl)c2)c2occ(-c3ccc(NC(=O)Nc4cc(C(F)(F)F)ccc4F)cc3)c12 [Ia]
4 | – | 6.00 to 6.99 | – | – | COc1cc(-c2cnc(N)c3c(-c4ccc5[nH]ccc5c4)csc23)cc(OC)c1OC [Iaa, 4-Amino-3 (1H-Indol-5-yl)-7-(3,4,5-trimethoxyphenyl)-thieno[3,2-c]pyridine]
5 | 8.00 to 9.00 | 8.00 to 9.00 | 8.50 to 9.50 | – | Nc1ncc(-c2cccc(S(N)(=O)=O)c2)c2occ(-c3ccc(NC(=O)Nc4cc(C(F)(F)F)ccc4F)cc3)c12 [Id]
